Data taken from US7160508B2, “Personal care products having elastomeric portions” (The Gillette Company, priority 2001, dated 2007).
Converted amounts (≈) assume the structure as drawn.

Test: Minimum inhibitory concentration (agar plate dilution, molds)
Type: cell-based
Settings: 168 h; lowest concentration in sterile water and agar with no growth visible to the naked eye after 7 days at 27±2° C.
Text: Preferred antimicrobial agents will inhibit mold growth at relatively low concentrations of antimicrobial agent, i.e., preferred antimicrobial agents will have a low “minimum inhibitory concentration” (MIC), measured as parts per million (ppm) concentration in sterile water and agar using the test procedure discussed below. If the MIC is high, a high concentration of antimicrobial agent will generally be necessary in order to obtain sufficient antifungal activity, resulting in increased cost and a potential adverse affect on the properties of the elastomeric material. For example, high concentrations of antifungal agent may tend to increase the hardness of the thermoplastic elastomer. Preferred antimicrobial agents have an MIC of less than about 100 ppm.
Minimum inhibitory concentration is measured by diluting the antimicrobial agent in sterile water to obtain a plurality of solutions having a range of concentrations. 1 ml of each of the solutions is added to 9 ml portions of molten agar to give a final volume of 10 ml, and immediately poured to form plates. […] The plates are incubated at 27±2° C. and analyzed for growth at 3, 5 and 7 days. […]

- MIC: ~50 µg/mL (≈ 177 µM)
SMILES: CCCCCCCCn1sc(Cl)c(Cl)c1=O [4,5-dichloro-2-n-octyl-4-isothiazolin-3-one]
